# In patent US20230085307A1, “PYRIDAZINONE COMPOUND AND HERBICIDE” (NISSAN CHEMICAL CORPORATION, priority 2019, published 2023):
# System: barnyard grass
# Test: Test Example 4: herbicidal effect by soil treatment (Table 19, symbol H)
# Assay type: in vivo, barnyard grass (Echinochloa crus-galli)
# Conditions: amount of applied herbicide 320 g/ha
# In short: (§1)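 Three weeks of greenhouse growth at 25° C. to 30° C. followed a uniform surface spray of water-diluted emulsion at a predetermined herbicide amount. Seeds had been sown beforehand under about 1.5 cm of sterilized diluvial soil. Grading followed criteria set out in an earlier test.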
row,SMILES,"herbicidal effect, H: barnyard grass"
1,CCCC(=O)Oc1c(C)nn(C)c(=O)c1-c1c(-c2ccc(OC)cc2F)sc2ccc(F)cc12 [2-365],0 (Herbicidal rate of 5% or less (almost no effect))
2,COc1ccc(F)c(-c2sc3ccc(F)cc3c2-c2c(O)c(C)nn(C)c2=O)c1 [2-366],0 (Herbicidal rate of 5% or less (almost no effect))
3,Cc1nn(C)c(=O)c(-c2c(-c3cnccc3F)sc3ccc(F)cc23)c1O [2-383],3 (Herbicidal rate of 40% or more and less than 70%)

# System: Chinese sprangletop
# Test: Test Example 3: herbicidal effect by foliage application, Wagner pot (Table 18, symbol D)
# Assay type: in vivo, chinese sprangletop (Leptochloa chinensis)
# Conditions: amount of applied herbicide 320 g/ha
# In short: (§2)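 Plants were sown in alluvial soil held under 0.1–0.5 cm standing water and grown 14 days in a greenhouse at 25–30 °C. An emulsifiable formulation, water-diluted to the set dose, was then sprayed onto the foliage, and effects were scored three weeks later using previously defined criteria.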
row,SMILES,herbicidal effect on D: Chinese sprangletop
1,CCCC(=O)Oc1c(C)nn(C)c(=O)c1-c1c(-c2ccc(OC)cc2F)sc2ccc(F)cc12 [2-365],5 (Herbicidal rate of 90% or more (almost completely withered))
2,COc1ccc(F)c(-c2sc3ccc(F)cc3c2-c2c(O)c(C)nn(C)c2=O)c1 [2-366],0 (Herbicidal rate of 5% or less (almost no effect))
3,Cc1nn(C)c(=O)c(-c2c(-c3cnccc3F)sc3ccc(F)cc23)c1O [2-383],5 (Herbicidal rate of 90% or more (almost completely withered))

# System: rice flat sedge
# Test: Test Example 3: herbicidal effect by foliage application, Wagner pot (Table 18, symbol E)
# Assay type: in vivo, rice flat sedge (Cyperus iria)
# Conditions: amount of applied herbicide 320 g/ha
# In short: as §2
row,SMILES,herbicidal effect on E: rice flat sedge
1,CCCC(=O)Oc1c(C)nn(C)c(=O)c1-c1c(-c2ccc(OC)cc2F)sc2ccc(F)cc12 [2-365],5 (Herbicidal rate of 90% or more (almost completely withered))
2,COc1ccc(F)c(-c2sc3ccc(F)cc3c2-c2c(O)c(C)nn(C)c2=O)c1 [2-366],3 (Herbicidal rate of 40% or more and less than 70%)
3,Cc1nn(C)c(=O)c(-c2c(-c3cnccc3F)sc3ccc(F)cc23)c1O [2-383],5 (Herbicidal rate of 90% or more (almost completely withered))

# System: blackgrass
# Test: Test Example 4: herbicidal effect by soil treatment (Table 19, symbol J)
# Assay type: in vivo, blackgrass (Alopecurus myosuroides)
# Conditions: amount of applied herbicide 320 g/ha
# In short: as §1
row,SMILES,"herbicidal effect, J: blackgrass"
1,CCCC(=O)Oc1c(C)nn(C)c(=O)c1-c1c(-c2ccc(OC)cc2F)sc2ccc(F)cc12 [2-365],0 (Herbicidal rate of 5% or less (almost no effect))
2,COc1ccc(F)c(-c2sc3ccc(F)cc3c2-c2c(O)c(C)nn(C)c2=O)c1 [2-366],2 (Herbicidal rate of 20% or more and less than 40%)
3,Cc1nn(C)c(=O)c(-c2c(-c3cnccc3F)sc3ccc(F)cc23)c1O [2-383],4 (Herbicidal rate of 70% or more and less than 90%)

# System: windgrass
# Test: Test Example 4: herbicidal effect by soil treatment (Table 19, symbol L)
# Assay type: in vivo, windgrass (Apera spica-venti)
# Conditions: amount of applied herbicide 320 g/ha
# In short: as §1
row,SMILES,"herbicidal effect, L: windgrass"
1,CCCC(=O)Oc1c(C)nn(C)c(=O)c1-c1c(-c2ccc(OC)cc2F)sc2ccc(F)cc12 [2-365],0 (Herbicidal rate of 5% or less (almost no effect))
2,COc1ccc(F)c(-c2sc3ccc(F)cc3c2-c2c(O)c(C)nn(C)c2=O)c1 [2-366],0 (Herbicidal rate of 5% or less (almost no effect))
3,Cc1nn(C)c(=O)c(-c2c(-c3cnccc3F)sc3ccc(F)cc23)c1O [2-383],3 (Herbicidal rate of 40% or more and less than 70%)

# System: barnyard grass
# Test: Test Example 3: herbicidal effect by foliage application, Wagner pot (Table 18, symbol H)
# Assay type: in vivo, barnyard grass (Echinochloa crus-galli)
# Conditions: amount of applied herbicide 320 g/ha
# In short: as §2
row,SMILES,herbicidal effect on H: barnyard grass
1,CCCC(=O)Oc1c(C)nn(C)c(=O)c1-c1c(-c2ccc(OC)cc2F)sc2ccc(F)cc12 [2-365],4 (Herbicidal rate of 70% or more and less than 90%)
2,COc1ccc(F)c(-c2sc3ccc(F)cc3c2-c2c(O)c(C)nn(C)c2=O)c1 [2-366],3 (Herbicidal rate of 40% or more and less than 70%)
3,Cc1nn(C)c(=O)c(-c2c(-c3cnccc3F)sc3ccc(F)cc23)c1O [2-383],5 (Herbicidal rate of 90% or more (almost completely withered))

# System: chickweed
# Test: Test Example 4: herbicidal effect by soil treatment (Table 19, symbol P)
# Assay type: in vivo, common chickweed (Stellaria media)
# Conditions: amount of applied herbicide 320 g/ha
# In short: as §1
row,SMILES,"herbicidal effect, P: chickweed"
1,CCCC(=O)Oc1c(C)nn(C)c(=O)c1-c1c(-c2ccc(OC)cc2F)sc2ccc(F)cc12 [2-365],0 (Herbicidal rate of 5% or less (almost no effect))
2,COc1ccc(F)c(-c2sc3ccc(F)cc3c2-c2c(O)c(C)nn(C)c2=O)c1 [2-366],3 (Herbicidal rate of 40% or more and less than 70%)
3,Cc1nn(C)c(=O)c(-c2c(-c3cnccc3F)sc3ccc(F)cc23)c1O [2-383],4 (Herbicidal rate of 70% or more and less than 90%)

# System: persian speedwell
# Test: Test Example 4: herbicidal effect by soil treatment (Table 19, symbol R)
# Assay type: in vivo, Persian speedwell (Veronica persica)
# Conditions: amount of applied herbicide 320 g/ha
# In short: as §1
row,SMILES,"herbicidal effect, R: persian speedwell"
1,CCCC(=O)Oc1c(C)nn(C)c(=O)c1-c1c(-c2ccc(OC)cc2F)sc2ccc(F)cc12 [2-365],0 (Herbicidal rate of 5% or less (almost no effect))
2,COc1ccc(F)c(-c2sc3ccc(F)cc3c2-c2c(O)c(C)nn(C)c2=O)c1 [2-366],3 (Herbicidal rate of 40% or more and less than 70%)
3,Cc1nn(C)c(=O)c(-c2c(-c3cnccc3F)sc3ccc(F)cc23)c1O [2-383],5 (Herbicidal rate of 90% or more (almost completely withered))

# System: redroot pigweed
# Test: Test Example 4: herbicidal effect by soil treatment (Table 19, symbol N)
# Assay type: in vivo, redroot pigweed (Amaranthus retroflexus)
# Conditions: amount of applied herbicide 320 g/ha
# In short: as §1
row,SMILES,"herbicidal effect, N: redroot pigweed"
1,CCCC(=O)Oc1c(C)nn(C)c(=O)c1-c1c(-c2ccc(OC)cc2F)sc2ccc(F)cc12 [2-365],3 (Herbicidal rate of 40% or more and less than 70%)
2,COc1ccc(F)c(-c2sc3ccc(F)cc3c2-c2c(O)c(C)nn(C)c2=O)c1 [2-366],4 (Herbicidal rate of 70% or more and less than 90%)
3,Cc1nn(C)c(=O)c(-c2c(-c3cnccc3F)sc3ccc(F)cc23)c1O [2-383],5 (Herbicidal rate of 90% or more (almost completely withered))

# System: lambsquarters
# Test: Test Example 4: herbicidal effect by soil treatment (Table 19, symbol O)
# Assay type: in vivo, lambsquarters (Chenopodium album)
# Conditions: amount of applied herbicide 320 g/ha
# In short: as §1
row,SMILES,"herbicidal effect, O: lambsquarters"
1,CCCC(=O)Oc1c(C)nn(C)c(=O)c1-c1c(-c2ccc(OC)cc2F)sc2ccc(F)cc12 [2-365],1 (Herbicidal rate of 5% or more and less than 20%)
2,COc1ccc(F)c(-c2sc3ccc(F)cc3c2-c2c(O)c(C)nn(C)c2=O)c1 [2-366],2 (Herbicidal rate of 20% or more and less than 40%)
3,Cc1nn(C)c(=O)c(-c2c(-c3cnccc3F)sc3ccc(F)cc23)c1O [2-383],4 (Herbicidal rate of 70% or more and less than 90%)

# System: Italian ryegrass
# Test: Test Example 4: herbicidal effect by soil treatment (Table 19, symbol K)
# Assay type: in vivo, Italian ryegrass (Lolium multiflorum)
# Conditions: amount of applied herbicide 320 g/ha
# In short: as §1
row,SMILES,"herbicidal effect, K: Italian ryegrass"
1,CCCC(=O)Oc1c(C)nn(C)c(=O)c1-c1c(-c2ccc(OC)cc2F)sc2ccc(F)cc12 [2-365],0 (Herbicidal rate of 5% or less (almost no effect))
2,COc1ccc(F)c(-c2sc3ccc(F)cc3c2-c2c(O)c(C)nn(C)c2=O)c1 [2-366],4 (Herbicidal rate of 70% or more and less than 90%)
3,Cc1nn(C)c(=O)c(-c2c(-c3cnccc3F)sc3ccc(F)cc23)c1O [2-383],4 (Herbicidal rate of 70% or more and less than 90%)

# System: wild oat
# Test: Test Example 4: herbicidal effect by soil treatment (Table 19, symbol I)
# Assay type: in vivo, wild oat (Avena fatua)
# Conditions: amount of applied herbicide 320 g/ha
# In short: as §1
row,SMILES,"herbicidal effect, I: wild oat"
1,CCCC(=O)Oc1c(C)nn(C)c(=O)c1-c1c(-c2ccc(OC)cc2F)sc2ccc(F)cc12 [2-365],0 (Herbicidal rate of 5% or less (almost no effect))
2,COc1ccc(F)c(-c2sc3ccc(F)cc3c2-c2c(O)c(C)nn(C)c2=O)c1 [2-366],0 (Herbicidal rate of 5% or less (almost no effect))
3,Cc1nn(C)c(=O)c(-c2c(-c3cnccc3F)sc3ccc(F)cc23)c1O [2-383],3 (Herbicidal rate of 40% or more and less than 70%)

# System: green foxtail
# Test: Test Example 4: herbicidal effect by soil treatment (Table 19, symbol G)
# Assay type: in vivo, green foxtail (Setaria viridis)
# Conditions: amount of applied herbicide 320 g/ha
# In short: as §1
row,SMILES,"herbicidal effect, G: green foxtail"
1,CCCC(=O)Oc1c(C)nn(C)c(=O)c1-c1c(-c2ccc(OC)cc2F)sc2ccc(F)cc12 [2-365],0 (Herbicidal rate of 5% or less (almost no effect))
2,COc1ccc(F)c(-c2sc3ccc(F)cc3c2-c2c(O)c(C)nn(C)c2=O)c1 [2-366],0 (Herbicidal rate of 5% or less (almost no effect))
3,Cc1nn(C)c(=O)c(-c2c(-c3cnccc3F)sc3ccc(F)cc23)c1O [2-383],4 (Herbicidal rate of 70% or more and less than 90%)

# System: velvetleaf
# Test: Test Example 4: herbicidal effect by soil treatment (Table 19, symbol M)
# Assay type: in vivo, velvetleaf (Abutilon theophrasti)
# Conditions: amount of applied herbicide 320 g/ha
# In short: as §1
row,SMILES,"herbicidal effect, M: velvetleaf"
1,CCCC(=O)Oc1c(C)nn(C)c(=O)c1-c1c(-c2ccc(OC)cc2F)sc2ccc(F)cc12 [2-365],0 (Herbicidal rate of 5% or less (almost no effect))
2,COc1ccc(F)c(-c2sc3ccc(F)cc3c2-c2c(O)c(C)nn(C)c2=O)c1 [2-366],0 (Herbicidal rate of 5% or less (almost no effect))
3,Cc1nn(C)c(=O)c(-c2c(-c3cnccc3F)sc3ccc(F)cc23)c1O [2-383],4 (Herbicidal rate of 70% or more and less than 90%)

# System: southern crabgrass
# Test: Test Example 4: herbicidal effect by soil treatment (Table 19, symbol F)
# Assay type: in vivo, southern crabgrass (Digitaria ciliaris)
# Conditions: amount of applied herbicide 320 g/ha
# In short: as §1
row,SMILES,"herbicidal effect, F: southern crabgrass"
1,CCCC(=O)Oc1c(C)nn(C)c(=O)c1-c1c(-c2ccc(OC)cc2F)sc2ccc(F)cc12 [2-365],0 (Herbicidal rate of 5% or less (almost no effect))
2,COc1ccc(F)c(-c2sc3ccc(F)cc3c2-c2c(O)c(C)nn(C)c2=O)c1 [2-366],3 (Herbicidal rate of 40% or more and less than 70%)
3,Cc1nn(C)c(=O)c(-c2c(-c3cnccc3F)sc3ccc(F)cc23)c1O [2-383],4 (Herbicidal rate of 70% or more and less than 90%)
